Test results reported in patent US20240002391A1, “4-ALKOXYPYRROLO[2,1-F][1,2,4]TRIAZINES AND PREPARATION AND USES THEREOF” (BioSplice Therapeutics, Inc., priority 2022, published 2024).

Target: recombinant DYRK1A kinase (Homo sapiens (Human), UniProt Q13627)
Test: DYRK1A kinase assay (Ser/Thr 18 peptide Z-lyte FRET)
Format: biochemical
Settings: DYRK1A kinase activity, Z-lyte Ser/Thr 18 peptide, 15 μM ATP; method text calls the value IC50; read-out: EC50 (the source's name)
Procedure, shortened: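 Z-lyte FRET read-out: coumarin (Em 455) over fluorescein (Em 520) emission ratio, converted to percent phosphorylation after 1 h development. Reaction: 0.25 μg/mL kinase, 15 μM ATP, 4 μM peptide, 1 h RT with compound, duplicate wells. IC50s fitted by non-linear regression.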

| Compound | IC50 [nM] |
| --- | --- |
| COc1nc(NC2CCC3(CC2)COC3)nn2ccc(-c3ccn4nccc4c3)c12 [Compound 395, 4-Methoxy-5-(pyrazolo[1,5-a]pyridin-5-yl)-N-(2-oxaspiro[3.5]nonan-7-yl)pyrrolo[2,1-f][1,2,4]triazin-2-amine] | 6.2 |
| CNC(=O)c1cnn2ccc(-c3ccn4nc(N[C@H]5CC[C@@H](OC)CC5)nc(OC)c34)cc12 [Compound 399, 5-(4-Methoxy-2-((cis-4-methoxycyclohexyl)amino)pyrrolo[2,1-f][1,2,4]triazin-5-yl)-N-methylpyrazolo[1,5-a]pyridine-3-carboxamide] | 3.5 |
| CNC(=O)c1cnn2ccc(-c3ccn4nc(N[C@H]5CC[C@](C)(OC)CC5)nc(OC)c34)cc12 [Compound 405, 5-(4-Methoxy-2-(((1r,4r)-4-methoxy-4-methylcyclohexyl)amino)pyrrolo[2,1-f][1,2,4]triazin-5-yl)-N-methylpyrazolo[1,5-a]pyridine-3-carboxamide] | 0.7 |
| COc1nc(N[C@@H]2CCN(C)CC2(F)F)nn2ccc(-c3cc(F)c4nccn4c3)c12 [Compound 434, (R)—N-(3,3-Difluoro-1-methylpiperidin-4-yl)-5-(8-fluoroimidazo[1,2-a]pyridin-6-yl)-4-methoxypyrrolo[2,1-f][1,2,4]triazin-2-amine] | 4.9 |
| COc1nc(N[C@@H]2CCN(C3COC3)CC2(F)F)nn2ccc(-c3cc(F)c4nccn4c3)c12 [Compound 435, (R)—N-(3,3-Difluoro-1-(oxetan-3-yl)piperidin-4-yl)-5-(8-fluoroimidazo[1,2-a]pyridin-6-yl)-4-methoxypyrrolo[2,1-f][1,2,4]triazin-2-amine] | 8.9 |
| CNC(=O)c1cnc2ccc(-c3ccn4nc(N[C@H]5CC[C@](C)(OC)CC5)nc(OC)c34)cn12 [Compound 445, 6-(4-Methoxy-2-(((1r,4r)-4-methoxy-4-methylcyclohexyl)amino)pyrrolo[2,1-f][1,2,4]triazin-5-yl)-N-methylimidazo[1,2-a]pyridine-3-carboxamide] | 2.1 |
| CNC(=O)[C@]1(C)C[C@@H](Nc2nc(OC)c3c(-c4ccc5nc(C)n(CC(F)F)c5c4)ccn3n2)C1 [Compound 502, trans-3-((5-(1-(2,2-Difluoroethyl)-2-methyl-1H-benzo[d]imidazol-6-yl)-4-methoxypyrrolo[2,1-f][1,2,4]triazin-2-yl)amino)-N,1-dimethylcyclobutane-1-carboxamide] | 1.4 |
| COc1nc(N[C@H]2C[C@](C)(C(=O)NC3CC3)C2)nn2ccc(-c3ccc4nc(C)n(CC(F)F)c4c3)c12 [Compound 503, trans-N-Cyclopropyl-3-((5-(1-(2,2-difluoroethyl)-2-methyl-1H-benzo[d]imidazol-6-yl)-4-methoxypyrrolo[2,1-f][1,2,4]triazin-2-yl)amino)-1-methylcyclobutane-1-carboxamide] | 2.3 |
| COc1nc(N[C@H]2CN(C3COC3)C[C@H]2F)nn2ccc(-c3ccc4nc(C)n(CC(F)F)c4c3)c12 [Compound 505, 5-(1-(2,2-Difluoroethyl)-2-methyl-1H-benzo[d]imidazol-6-yl)-N-((3S,4R)-4-fluoro-1-(oxetan-3-yl)pyrrolidin-3-yl)-4-methoxypyrrolo[2,1-f][1,2,4]triazin-2-amine] | 3.8 |
| COc1nc(N[C@@H]2CN(C3COC3)C[C@@H]2F)nn2ccc(-c3ccc4nc(C)n(CC(F)F)c4c3)c12 [Compound 506, 5-(1-(2,2-Difluoroethyl)-2-methyl-1H-benzo[d]imidazol-6-yl)-N-((3R,4S)-4-fluoro-1-(oxetan-3-yl)pyrrolidin-3-yl)-4-methoxypyrrolo[2,1-f][1,2,4]triazin-2-amine] | 2.3 |
| COc1nc(N[C@H]2CCN(CCO)C[C@H]2F)nn2ccc(-c3cc(F)c4nc(C)n(CC(F)F)c4c3)c12 [Compound 519, 2-((3R,4S)-4-((5-(1-(2,2-Difluoroethyl)-4-fluoro-2-methyl-1H-benzo[d]imidazol-6-yl)-4-methoxypyrrolo[2,1-f][1,2,4]triazin-2-yl)amino)-3-fluoropiperidin-1-yl)ethan-1-ol] | 2.7 |
| COc1nc(N[C@H]2CCN(C(C)=O)C[C@H]2F)nn2ccc(-c3cc(F)c4nc(C)n(CC(F)F)c4c3)c12 [Compound 521, 1-((3R,4S)-4-((5-(1-(2,2-Difluoroethyl)-4-fluoro-2-methyl-1H-benzo[d]imidazol-6-yl)-4-methoxypyrrolo[2,1-f][1,2,4]triazin-2-yl)amino)-3-fluoropiperidin-1-yl)ethan-1-one] | 2.6 |
| COc1nc(N[C@H]2CCN(CCO)C[C@H]2F)nn2ccc(-c3cc(F)c4nc(C)n(C(C)C)c4c3)c12 [Compound 542, 2-((3R,4S)-3-Fluoro-4-((5-(4-fluoro-1-isopropyl-2-methyl-1H-benzo[d]imidazol-6-yl)-4-methoxypyrrolo[2,1-f][1,2,4]triazin-2-yl)amino)piperidin-1-yl)ethan-1-ol] | 1.1 |
| COc1nc(N[C@H]2CCN(C(C)=O)C[C@H]2F)nn2ccc(-c3cc(F)c4nc(C)n(C(C)C)c4c3)c12 [Compound 544, 1-((3R,4S)-3-Fluoro-4-((5-(4-fluoro-1-isopropyl-2-methyl-1H-benzo[d]imidazol-6-yl)-4-methoxypyrrolo[2,1-f][1,2,4]triazin-2-yl)amino)piperidin-1-yl)ethan-1-one] | 0.9 |

Continued, values first:

| IC50 [nM] | Compound |
| --- | --- |
| 2.7 | CNC(=O)c1cnn2ccc(-c3ccn4nc(N[C@H]5CC[C@](C)(O)CC5)nc(OC)c34)cc12 [Compound 401, 5-(2-(((1r,4r)-4-Hydroxy-4-methylcyclohexyl)amino)-4-methoxypyrrolo[2,1-f][1,2,4]triazin-5-yl)-N-methylpyrazolo[1,5-a]pyridine-3-carboxamide] |
| 2.6 | CC[C@]1(O)CC[C@H](Nc2nc(OC)c3c(-c4cc(F)c5nccn5c4)ccn3n2)CC1 [Compound 433, (1r,4r)-1-Ethyl-4-((5-(8-fluoroimidazo[1,2-a]pyridin-6-yl)-4-methoxypyrrolo[2,1-f][1,2,4]triazin-2-yl)amino)cyclohexan-1-ol] |
| 2.3 | CNC(=O)c1cnc2ccc(-c3ccn4nc(N[C@H]5CC[C@@H](OC)CC5)nc(OC)c34)cn12 [Compound 439, 6-(4-Methoxy-2-((cis-4-methoxycyclohexyl)amino)pyrrolo[2,1-f][1,2,4]triazin-5-yl)-N-methylimidazo[1,2-a]pyridine-3-carboxamide] |
| 1.1 | CNC(=O)c1cnc2ccc(-c3ccn4nc(N[C@H]5CC[C@](C)(O)CC5)nc(OC)c34)cn12 [Compound 441, 6-(2-(((1r,4r)-4-Hydroxy-4-methylcyclohexyl)amino)-4-methoxypyrrolo[2,1-f][1,2,4]triazin-5-yl)-N-methylimidazo[1,2-a]pyridine-3-carboxamide] |
| 1.4 | COc1nc(N[C@H]2C[C@](C)(C(=O)NC3CC(F)(F)C3)C2)nn2ccc(-c3ccc4nc(C)n(CC(F)F)c4c3)c12 [Compound 504, trans-N-(3,3-Difluorocyclobutyl)-3-((5-(1-(2,2-difluoroethyl)-2-methyl-1H-benzo[d]imidazol-6-yl)-4-methoxypyrrolo[2,1-f][1,2,4]triazin-2-yl)amino)-1-methylcyclobutane-1-carboxamide] |
| 3.1 | COc1nc(NC2CCC(=O)N(C)C2)nn2ccc(-c3ccc4nc(C)n(CC(F)F)c4c3)c12 (centres unmarked) [Compound 507, 5-((5-(1-(2,2-Difluoroethyl)-2-methyl-1H-benzo[d]imidazol-6-yl)-4-methoxypyrrolo[2,1-f][1,2,4]triazin-2-yl)amino)-1-methylpiperidin-2-one] |
| 24.3 | Cc1nc2ccc(-c3ccn4nc(N[C@H]5CC[C@](C)(O)CC5)nc(OC5COC5)c34)cc2n1CC(F)F [Compound 508, (1r,4r)-4-((5-(1-(2,2-Difluoroethyl)-2-methyl-1H-benzo[d]imidazol-6-yl)-4-(oxetan-3-yloxy)pyrrolo[2,1-f][1,2,4]triazin-2-yl)amino)-1-methylcyclohexan-1-ol] |
| 1.4 | COc1nc(N[C@H]2C[C@@](C)(O)C2)nn2ccc(-c3cc(F)c4nc(C)n(CC(F)F)c4c3)c12 [Compound 509, cis-3-((5-(1-(2,2-Difluoroethyl)-4-fluoro-2-methyl-1H-benzo[d]imidazol-6-yl)-4-methoxypyrrolo[2,1-f][1,2,4]triazin-2-yl)amino)-1-methylcyclobutan-1-ol] |
| 2.8 | COc1nc(N[C@@H]2CN(C(C)=O)C[C@@H]2F)nn2ccc(-c3cc(F)c4nc(C)n(CC(F)F)c4c3)c12 [Compound 513, 1-((3R,4S)-3-((5-(1-(2,2-Difluoroethyl)-4-fluoro-2-methyl-1H-benzo[d]imidazol-6-yl)-4-methoxypyrrolo[2,1-f][1,2,4]triazin-2-yl)amino)-4-fluoropyrrolidin-1-yl)ethan-1-one] |
| 3 | COc1nc(N[C@@H]2CCN(C(C)=O)C[C@@H]2F)nn2ccc(-c3cc(F)c4nc(C)n(CC(F)F)c4c3)c12 [Compound 520, 1-((3S,4R)-4-((5-(1-(2,2-Difluoroethyl)-4-fluoro-2-methyl-1H-benzo[d]imidazol-6-yl)-4-methoxypyrrolo[2,1-f][1,2,4]triazin-2-yl)amino)-3-fluoropiperidin-1-yl)ethan-1-one] |
| 2.4 | COc1nc(N[C@@H]2CCN(CCO)CC2(F)F)nn2ccc(-c3cc(F)c4nc(C)n(CC(F)F)c4c3)c12 [Compound 525, (R)-2-(4-((5-(1-(2,2-Difluoroethyl)-4-fluoro-2-methyl-1H-benzo[d]imidazol-6-yl)-4-methoxypyrrolo[2,1-f][1,2,4]triazin-2-yl)amino)-3,3-difluoropiperidin-1-yl)ethan-1-ol] |
| 1.6 | COc1nc(N[C@@H]2CCN(C(C)=O)CC2(F)F)nn2ccc(-c3cc(F)c4nc(C)n(CC(F)F)c4c3)c12 [Compound 526, (R)-1-(4-((5-(1-(2,2-Difluoroethyl)-4-fluoro-2-methyl-1H-benzo[d]imidazol-6-yl)-4-methoxypyrrolo[2,1-f][1,2,4]triazin-2-yl)amino)-3,3-difluoropiperidin-1-yl)ethan-1-one] |
